Consider twelve compounds from US10112958B2, “N-[2-(2-amino-6,6-disubstituted-4,4a,5,6-tetrahydropyrano[3,4-d][1,3]thiazin-8a(8H)-YL)-1,3-thiazol-4-YL] amides” (Pfizer Inc., priority 2015, dated 2018).

T1 sequence (P56817 46-457 limits assumed): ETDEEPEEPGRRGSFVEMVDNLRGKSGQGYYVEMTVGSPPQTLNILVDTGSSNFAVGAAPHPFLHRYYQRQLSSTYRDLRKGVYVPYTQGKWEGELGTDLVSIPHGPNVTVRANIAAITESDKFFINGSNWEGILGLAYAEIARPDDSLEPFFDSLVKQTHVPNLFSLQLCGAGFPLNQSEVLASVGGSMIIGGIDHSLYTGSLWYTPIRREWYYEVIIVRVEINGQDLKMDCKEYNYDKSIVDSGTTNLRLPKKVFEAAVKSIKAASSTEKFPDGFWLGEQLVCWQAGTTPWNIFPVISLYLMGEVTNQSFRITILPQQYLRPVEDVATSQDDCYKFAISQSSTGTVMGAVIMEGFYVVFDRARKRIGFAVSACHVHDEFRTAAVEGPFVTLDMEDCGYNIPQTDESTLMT

This assay concerns the target T1, BACE1 enzyme (Homo sapiens, UniProt P56817).
T1 construct: transfected with a soluble BACE construct (BACE1deltaTM96His); His (C); made in house; host or cells: CHO-K1 cells (secreted into conditioned media)
The experiment in a line: BACE1 Cell-Free Assay (fluorescence polarization, cleavage of synthetic APP substrate). In kind it is biochemical. Particulars: geometric mean of 2-4 determinations unless otherwise indicated (b: ≥5 determinations; c: single determination); 0.1 nM BACE1, 150 nM peptide substrate, pH 4.5, 3 hours at 37° C. From the text:
BACE1 Cell-Free Assay: Beta-secretase (BACE) is one of the enzymes involved in the generation of the amyloid beta peptide found in the amyloid plaques of Alzheimer's disease patients. This assay measures the inhibition of the beta-secretase enzyme as it cleaves a non-native peptide.
A synthetic APP substrate that can be cleaved by beta-secretase having N-terminal biotin and made fluorescent by the covalent attachment of Oregon Green at the Cys residue is used to assay beta-secretase activity in the presence or absence of the inhibitory compounds. The substrate is Biotin-GLTNIKTEEISEISY^EVEFR-C[Oregon Green]KK-OH. The BACE1 enzyme is affinity purified material from conditioned media of CHO-K1 cells that have been transfected with a soluble BACE construct (BACE1deltaTM96His). Compounds are incubated in a ½ log dose response curve from a top concentration of 100 μM with BACE1 enzyme and the biotinylated fluorescent peptide in 384-well black plates (Thermo Scientific #4318). BACE1 is at a final concentration of 0.1 nM with a final concentration of peptide substrate of 150 nM in a reaction volume of 30 μL assay buffer [100 mM sodium acetate, pH 4.5 (brought to pH with acetic acid), and 0.001% Tween-20]. Plates are covered and incubated for 3 hours at 37° C. The reaction is stopped with the addition of 30 μL of 1.5 μM Streptavidin (Pierce, #21125). After a 10 minute incubation at room temperature, plates are read on a PerkinElmer EnVision for fluorescence polarization (Ex485 nm/Em530 nm). The activity of the beta-secretase enzyme is detected by changes in the fluorescence polarization that occur when the substrate is cleaved by the enzyme.
On the technique in general: In fluorescence polarisation assays a small probe gives low polarisation when free and higher when bound to something large.
In general, IC50 refers to the point on the concentration scale where inhibition reaches its midpoint. The low end stands for greater potency, the high end for weaker potency. As to `CC[C@]1(C)C[C@@H]2CSC(N)=N[C@]2(c2nc(NC(=O)c3ccc(OC(F)F)cn3)cs2)CO1` [Example 28, N-{2-[(4aS,6R,8aS)-2-amino-6-ethyl-6-methyl-4,4a,5,6-tetrahydropyrano[3,4-d][1,3]thiazin-8a(8H)-yl]-1,3-thiazol-4-yl}-5-(difluoromethoxy)pyridine-2-carboxamide], the half-inhibitory concentration (IC50) is 14800 nM.
Then `NC1=N[C@@]2(c3nc(NC(=O)c4ccc(OC(F)F)cn4)cs3)COC3(COC3)C[C@H]2CS1` [Example 29, N-{2-[(4a′R,8a′R)-2′-amino-4a′,5′-dihydro-4′H-spiro[oxetane-3,6′-pyrano[3,4-d][1,3]thiazin]-8a′(8′H)-yl]-1,3-thiazol-4-yl}-5-(difluoromethoxy)pyridine-2-carboxamide], with 675 nM; and `CC1(C)C[C@H]2CSC(N)=N[C@@]2(c2nc(NC(=O)c3ncc(OC(F)F)cc3Cl)cs2)CO1` [Example 30, N-{2-[(4aR,8aR)-2-amino-6,6-dimethyl-4,4a,5,6-tetrahydropyrano[3,4-d][1,3]thiazin-8a(8H)-yl]-1,3-thiazol-4-yl}-3-chloro-5-(difluoromethoxy)pyridine-2-carboxamide], with 59 nM.
Then `CC1(C)C[C@H]2CSC(N)=N[C@@]2(c2nc(NC(=O)C(C)(C)F)cs2)CO1` [Example 31, N-{2-[(4aR,8aR)-2-amino-6,6-dimethyl-4,4a,5,6-tetrahydropyrano[3,4-d][1,3]thiazin-8a(8H)-yl]-1,3-thiazol-4-yl}-2-fluoro-2-methylpropanamide], with 911 nM; and `COC(C)(C)C(=O)Nc1csc([C@]23COC(C)(C)C[C@H]2CSC(N)=N3)n1` [Example 32, N-{2-[(4aR,8aR)-2-amino-6,6-dimethyl-4,4a,5,6-tetrahydropyrano[3,4-d][1,3]thiazin-8a(8H)-yl]-1,3-thiazol-4-yl}-2-methoxy-2-methylpropanamide], with 1690 nM.
Regarding `CC1(C)C[C@H]2CSC(N)=N[C@@]2(c2nc(NC(=O)C34CC(C3)C4)cs2)CO1` [Example 33, N-{2-[(4aR,8aR)-2-amino-6,6-dimethyl-4,4a,5,6-tetrahydropyrano[3,4-d][1,3]thiazin-8a(8H)-yl]-1,3-thiazol-4-yl} bicyclo[1.1.1]pentane-1-carboxamide], the IC50 was determined as 734 nM.
Then `C[C@@]1(CF)C[C@H]2CSC(N)=N[C@@]2(c2nc(NC(=O)c3ccc(OC(F)F)cn3)cs2)CO1` [Example 34, N-{2-[(4aR,6S,8aR)-2-amino-6-(fluoromethyl)-6-methyl-4,4a,5,6-tetrahydropyrano[3,4-d][1,3]thiazin-8a(8H)-yl]-1,3-thiazol-4-yl}-5-(difluoromethoxy) pyridine-2-carboxamide], with 194 nM; and `C[C@]1(CF)C[C@H]2CSC(N)=N[C@@]2(c2nc(NC(=O)c3ccc(OC(F)F)cn3)cs2)CO1` [Example 35, N-{2-[(4aR,6R,8aR)-2-amino-6-(fluoromethyl)-6-methyl-4,4a,5,6-tetrahydropyrano[3,4-d][1,3]thiazin-8a(8H)-yl]-1,3-thiazol-4-yl}-5-(difluoromethoxy) pyridine-2-carboxamide], with 176 nM.
Then `CC[C@@]1(C)C[C@H]2CSC(N)=N[C@@]2(c2nc(NC(=O)c3ncc(OC(F)F)cc3C)cs2)CO1` [Example 36, N-{2-[(4aR,6S,8aR)-2-amino-6-ethyl-6-methyl-4,4a,5,6-tetrahydropyrano[3,4-d][1,3]thiazin-8a(8H)-yl]-1,3-thiazol-4-yl}-5-(difluoromethoxy)-3-methylpyridine-2-carboxamide], with 60 nM.
Compound `CC[C@@]1(C)C[C@H]2CSC(N)=N[C@@]2(c2nc(NC(=O)C3C4CC3C4)cs2)CO1` (stereo partly drawn) [Example 37, N-{2-[(4aR,6S,8aR)-2-amino-6-ethyl-6-methyl-4,4a,5,6-tetrahydropyrano[3,4-d][1,3]thiazin-8a(8H)-yl]-1,3-thiazol-4-yl}bicyclo[1.1.1]pentane-2-carboxamide] displayed an IC50 of 177 nM.
The value for `COC[C@]1(C)C[C@H]2CSC(N)=N[C@@]2(c2nc(NC(=O)c3ccc(OC(F)F)cn3)cs2)CO1` [Example 40, N-{2-[(4aR,6S,8aR)-2-amino-6-(methoxymethyl)-6-methyl-4,4a,5,6-tetrahydropyrano[3,4-d][1,3]thiazin-8a(8H)-yl]-1,3-thiazol-4-yl}-5-(difluoromethoxy) pyridine-2-carboxamide] was 2080 nM.
Then `NC1=N[C@@]2(c3nc(NC(=O)c4ccc(F)cn4)cs3)COC3(CCC3)C[C@H]2CS1` [Example 41, N-{2-[(4a′R,8a′R)-2′-amino-4a′,5′-dihydro-4′H-spiro[cyclobutane-1,6′-pyrano[3,4-d] [1,3]thiazin]-8a′(8′H)-yl]-1,3-thiazol-4-yl}-5-fluoropyridine-2-carboxamide], with 714 nM.
